Reference: patent US7985767B2, “Therapeutic amides” (Allergan, Inc., priority 2006, dated 2011)

Key:
EP2 = EP2 (Homo sapiens, UniProt P43116); assay: EP2 binding (Ki)
From the text: (§1) U.S. patent application Ser. No. 11/553,143, filed on Oct. 26, 2006, incorporated by reference herein, describes the methods used to obtain the in vitro data in the table below.

hDP = molecular target: T1, hDP (Homo sapiens, UniProt Q13258); assay: Other receptors functional EC50, hDP; assay type: cell-based
T1 sequence (Q13258 1-359): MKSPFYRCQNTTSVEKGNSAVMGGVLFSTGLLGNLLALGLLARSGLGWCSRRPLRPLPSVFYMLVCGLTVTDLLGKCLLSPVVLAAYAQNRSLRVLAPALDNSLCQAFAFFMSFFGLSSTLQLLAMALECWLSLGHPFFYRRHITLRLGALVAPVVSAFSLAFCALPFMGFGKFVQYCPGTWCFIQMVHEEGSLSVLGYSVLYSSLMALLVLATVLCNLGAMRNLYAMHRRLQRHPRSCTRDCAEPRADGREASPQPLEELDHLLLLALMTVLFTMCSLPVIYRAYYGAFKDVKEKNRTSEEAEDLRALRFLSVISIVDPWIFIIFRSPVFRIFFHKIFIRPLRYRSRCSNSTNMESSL
From the text: as §1

hTP = molecular target: T2, hTP (Homo sapiens, UniProt P21731); assay: Other receptors functional EC50, hTP; assay type: cell-based
T2 sequence (P21731 1-343): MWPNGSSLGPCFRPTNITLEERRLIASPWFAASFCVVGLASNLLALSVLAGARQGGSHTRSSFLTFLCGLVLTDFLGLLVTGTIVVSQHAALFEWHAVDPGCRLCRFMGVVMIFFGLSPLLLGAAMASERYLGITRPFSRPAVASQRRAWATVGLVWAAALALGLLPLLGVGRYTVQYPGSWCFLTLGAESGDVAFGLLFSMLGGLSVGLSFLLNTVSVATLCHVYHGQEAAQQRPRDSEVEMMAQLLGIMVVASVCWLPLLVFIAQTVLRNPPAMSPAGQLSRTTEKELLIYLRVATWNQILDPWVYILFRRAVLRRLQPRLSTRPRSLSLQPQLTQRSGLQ
From the text: as §1

EP2, sequence (P43116 whole entry): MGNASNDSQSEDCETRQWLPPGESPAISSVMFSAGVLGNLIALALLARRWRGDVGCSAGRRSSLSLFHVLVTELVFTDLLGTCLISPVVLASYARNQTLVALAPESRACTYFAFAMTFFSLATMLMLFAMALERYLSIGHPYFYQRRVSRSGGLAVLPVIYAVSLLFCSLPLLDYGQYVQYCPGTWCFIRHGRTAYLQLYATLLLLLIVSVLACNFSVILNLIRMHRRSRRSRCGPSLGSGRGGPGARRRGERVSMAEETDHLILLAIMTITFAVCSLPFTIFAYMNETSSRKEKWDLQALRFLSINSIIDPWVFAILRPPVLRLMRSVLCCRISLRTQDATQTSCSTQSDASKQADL

Row | Structure (SMILES) | Ki (EP2) [µM] | EC50 (hDP) [µM] | EC50 (hTP) [µM]
1 | CCCCCC(O)c1ccc(N(CCCc2ccc(C(=O)O)s2)C(C)=O)cc1 (stereo not drawn) [5-(-3-(N-(4-(1-hydroxyhexyl)phenyl)acetamido)propyl)thiophene-2-carboxylic acid] | > 10 | 4.76 | 
2 | CCCCCC(O)c1ccc(N(CC#CCCCC(=O)O)C(C)=O)cc1 (stereo not drawn) [7-(N-(4-(1-hydroxyhexyl)phenyl)acetamido)hept-5-ynoic acid] |  |  | 8.53
